Source: ChEMBL document CHEMBL1201862, “PubChem BioAssay data set” (2004)
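Results reflect a 48-hour exposure of cells in 96-well plates to compound at five concentrations. GI50 marks 50% less growth.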 The source made the active and inactive calls. No stated cut-off is given here; in the data, active = GI50 up to about 1.1 µM and inactive = higher.

Assays:
Test in all cases: NCI anticancer screen, dose series, 48 h
KM12 = test system: KM12
HCT-15 = test system: HCT-15
MOLT-4 = test system: MOLT-4
HCT-116 = test system: HCT-116
SR = test system: SR
UACC-257 = test system: UACC-257
NCI-H460 = test system: NCI-H460
T47D = test system: T47D
MDA-MB-231 = test system: MDA-MB-231
786-0 = test system: 786-0
UO-31 = test system: UO-31
Hs-578T = test system: Hs-578T
Malme-3M = test system: Malme-3M
OVCAR-4 = test system: OVCAR-4
COLO 205 = test system: COLO 205
NCI-H522 = test system: NCI-H522
SN12C = test system: SN12C
EKVX = test system: EKVX
SNB-75 = test system: SNB-75
UACC-62 = test system: UACC-62
MDA-N = test system: MDA-N
K562 = test system: K562
MDA-MB-435 = test system: MDA-MB-435
SW-620 = test system: SW-620
NCI-H23 = test system: NCI-H23
SF-539 = test system: SF-539
SF-295 = test system: SF-295
LOX IMVI = test system: LOX IMVI
IGROV-1 = test system: IGROV-1
TK-10 = test system: TK-10
HL-60 = test system: HL-60
HOP-92 = test system: HOP-92
BT-549 = test system: BT-549
NCI-H226 = test system: NCI-H226
SK-MEL-28 = test system: SK-MEL-28
MCF7 = test system: MCF7
HOP-62 = test system: HOP-62
DU-145 = test system: DU-145
ACHN = test system: ACHN
M14 = test system: M14
HCC 2998 = test system: HCC 2998
A549 = test system: A549
OVCAR-8 = test system: OVCAR-8
U-251 = test system: U-251
A498 = test system: A498
NCI/ADR-RES = test system: NCI/ADR-RES
CAKI-1 = test system: CAKI-1
RPMI-8226 = test system: RPMI-8226
HT-29 = test system: HT-29
SNB-19 = test system: SNB-19
SF-268 = test system: SF-268
SK-OV-3 = test system: SK-OV-3
CCRF-CEM = test system: CCRF-CEM
SK-MEL-5 = test system: SK-MEL-5
SK-MEL-2 = test system: SK-MEL-2
RXF 393 = test system: RXF 393
PC-3 = test system: PC-3
OVCAR-5 = test system: OVCAR-5
OVCAR-3 = test system: OVCAR-3

Measured: GI50

CC[C@@]1(O)C(=O)OCc2c1cc1n(c2=O)Cc2c-1nc1ccccc1c2/C=N\NC(=O)C(N)Cc1ccc(O)cc1 (some centres not stated)
inactive: KM12 3.37 µM | UACC-257 2.45 µM | MDA-MB-231 15.8 µM | Hs-578T 7.43 µM | Malme-3M 1.35 µM | OVCAR-4 6.61 µM | COLO 205 12.6 µM | EKVX 2.57 µM | MDA-N 3.35 µM | MDA-MB-435 1.61 µM | SW-620 1.52 µM | IGROV-1 2.52 µM | TK-10 > 31.6 µM | HOP-92 1.27 µM | BT-549 1.9 µM | SK-MEL-28 6.24 µM | HCC 2998 4.03 µM | NCI/ADR-RES 1.33 µM | HT-29 1.36 µM
4.32 µM: HCT-15
active: MOLT-4 0.0658 µM | HCT-116 0.804 µM | SR < 0.0188 µM | NCI-H460 0.187 µM | T47D 0.285 µM | 786-0 0.374 µM | UO-31 0.619 µM | NCI-H522 0.998 µM | SN12C 0.228 µM | SNB-75 0.415 µM | UACC-62 0.209 µM | K562 0.531 µM | NCI-H23 0.233 µM | SF-539 0.0731 µM | SF-295 0.46 µM | LOX IMVI 0.189 µM | HL-60 0.146 µM | NCI-H226 0.15 µM | MCF7 0.367 µM | HOP-62 0.248 µM | DU-145 0.331 µM | ACHN 0.133 µM | M14 0.587 µM | A549 0.815 µM | OVCAR-8 0.809 µM | U-251 0.248 µM | A498 0.813 µM | CAKI-1 0.315 µM | RPMI-8226 0.867 µM | SNB-19 0.267 µM | SF-268 0.202 µM | SK-OV-3 0.869 µM | CCRF-CEM < 0.0236 µM | SK-MEL-5 0.638 µM

CC1C2(C)OC(=N)C(C#N)(C(c3cccc([N+](=O)[O-])c3)O2)C1(C#N)C#N (configuration not stated)
inactive: KM12 44.9 µM | MOLT-4 36.3 µM | HCT-116 18.5 µM | UACC-257 19.6 µM | NCI-H460 13.5 µM | SK-MEL-2 19.9 µM | RXF 393 21.4 µM | T47D 13.7 µM | PC-3 30.9 µM | MDA-MB-231 14.6 µM | 786-0 17.4 µM | UO-31 35.6 µM | Hs-578T 27.1 µM | Malme-3M 26.2 µM | COLO 205 13.8 µM | SN12C 14.9 µM | EKVX 27.9 µM | SNB-75 40.6 µM | UACC-62 17.9 µM | MDA-N 16.5 µM | K562 14.6 µM | SW-620 12.7 µM | NCI-H23 33.6 µM | SF-539 18.9 µM | SF-295 84.7 µM | LOX IMVI 16.9 µM | IGROV-1 42.6 µM | OVCAR-5 34.7 µM | OVCAR-3 > 10 µM | TK-10 42.1 µM | HL-60 13.8 µM | HOP-92 13.6 µM | BT-549 31 µM | NCI-H226 > 100 µM | SK-MEL-28 17.7 µM | MCF7 22.5 µM | DU-145 28.4 µM | ACHN 34 µM | M14 19.1 µM | A549 > 100 µM | OVCAR-8 29.6 µM | U-251 21.9 µM | A498 > 100 µM | NCI/ADR-RES 64.9 µM | CAKI-1 12.1 µM | HT-29 26.4 µM | SNB-19 37.1 µM | SF-268 33 µM | SK-OV-3 > 100 µM | CCRF-CEM 15.6 µM | SK-MEL-5 8 µM

Nc1nc(Br)nc2ncn(C3CC(O)C(CO)O3)c12 (configuration not stated)
inactive: KM12 > 100 µM | HCT-116 26.4 µM | UACC-257 > 100 µM | NCI-H460 85.1 µM | SK-MEL-2 > 100 µM | RXF 393 > 100 µM | T47D > 100 µM | PC-3 > 100 µM | MDA-MB-231 > 100 µM | 786-0 77.3 µM | UO-31 7.21 µM | Hs-578T > 100 µM | Malme-3M > 100 µM | OVCAR-4 > 100 µM | COLO 205 67.3 µM | NCI-H522 > 100 µM | SN12C 10 µM | EKVX > 100 µM | SNB-75 > 100 µM | UACC-62 11.9 µM | MDA-N > 68.7 µM | K562 23.4 µM | MDA-MB-435 > 100 µM | SW-620 > 24.8 µM | NCI-H23 3.76 µM | SF-539 58.7 µM | SF-295 > 100 µM | LOX IMVI > 72.9 µM | IGROV-1 > 100 µM | OVCAR-5 > 100 µM | OVCAR-3 > 100 µM | TK-10 > 100 µM | HOP-92 2.42 µM | BT-549 46 µM | NCI-H226 > 68.1 µM | SK-MEL-28 > 100 µM | MCF7 > 21.3 µM | HOP-62 > 100 µM | DU-145 > 100 µM | ACHN 10.7 µM | M14 3.05 µM | HCC 2998 > 60.8 µM | A549 18 µM | U-251 > 53 µM | A498 > 100 µM | CAKI-1 16 µM | RPMI-8226 > 90.2 µM | HT-29 52.7 µM | SNB-19 42.2 µM | SF-268 > 100 µM | SK-OV-3 > 100 µM | SK-MEL-5 60 µM
active: MOLT-4 0.0212 µM | OVCAR-8 0.236 µM | CCRF-CEM < 0.01 µM
> 100 µM: HCT-15

COc1cc(S(=O)(=O)Nc2ccc(-c3csc(N4C(=O)CSC4c4cccc(Oc5ccccc5)c4)n3)cc2)ccc1Cl (configuration not stated)
61.7 µM: HCT-15
inactive: KM12 35.2 µM | MOLT-4 52 µM | HCT-116 29.9 µM | SR 33.7 µM | RXF 393 16.7 µM | T47D 7.48 µM | PC-3 32.7 µM | 786-0 46.9 µM | UO-31 47.5 µM | Hs-578T 27.4 µM | Malme-3M 43.4 µM | OVCAR-4 52.6 µM | COLO 205 29.4 µM | NCI-H522 24.2 µM | SN12C 61.4 µM | EKVX 44.2 µM | SNB-75 58.1 µM | UACC-62 36.9 µM | MDA-N 23.9 µM | K562 31.9 µM | MDA-MB-435 33.5 µM | SW-620 43.8 µM | NCI-H23 40.4 µM | SF-539 31.9 µM | SF-295 65.8 µM | LOX IMVI 32.7 µM | IGROV-1 50.7 µM | OVCAR-5 > 100 µM | OVCAR-3 64.3 µM | HL-60 21.1 µM | HOP-92 46.7 µM | BT-549 23.7 µM | NCI-H226 32.1 µM | SK-MEL-28 23 µM | MCF7 20.6 µM | HOP-62 74.3 µM | DU-145 48.4 µM | ACHN > 100 µM | M14 53 µM | OVCAR-8 47 µM | A498 59 µM | NCI/ADR-RES > 100 µM | CAKI-1 > 100 µM | RPMI-8226 39.2 µM | HT-29 47 µM | SNB-19 77.8 µM | SF-268 24.3 µM | SK-OV-3 71 µM | CCRF-CEM 23.8 µM | SK-MEL-5 32.8 µM

CN(C(=O)c1ccc(Cl)cc1)C(=S)N1CCN(c2ccccc2)CC1
inactive: KM12 53.2 µM | MOLT-4 58.3 µM | SR 35.2 µM | UACC-257 71.4 µM | NCI-H460 37.8 µM | SK-MEL-2 > 100 µM | RXF 393 > 100 µM | T47D > 100 µM | MDA-MB-231 > 100 µM | 786-0 > 100 µM | UO-31 20.1 µM | Hs-578T 19 µM | Malme-3M > 100 µM | OVCAR-4 > 100 µM | COLO 205 50.9 µM | NCI-H522 51.5 µM | SN12C > 100 µM | SNB-75 46.7 µM | UACC-62 92.5 µM | MDA-N > 100 µM | K562 42.1 µM | MDA-MB-435 > 100 µM | SW-620 > 100 µM | NCI-H23 > 100 µM | SF-295 > 100 µM | LOX IMVI > 100 µM | IGROV-1 > 100 µM | OVCAR-5 > 100 µM | OVCAR-3 > 100 µM | TK-10 > 100 µM | HL-60 35.6 µM | HOP-92 89.5 µM | BT-549 > 100 µM | NCI-H226 47.5 µM | SK-MEL-28 > 100 µM | MCF7 78.9 µM | DU-145 > 100 µM | ACHN > 100 µM | M14 > 100 µM | HCC 2998 > 100 µM | A549 89.1 µM | OVCAR-8 > 100 µM | U-251 > 100 µM | RPMI-8226 64.3 µM | HT-29 77.6 µM | SNB-19 > 100 µM | SF-268 > 100 µM | CCRF-CEM 56.6 µM | SK-MEL-5 35.5 µM
87.5 µM: HCT-15
